Square brackets hold non-standard residues; d marks the D form. Ends that are not written are not given here. * marks the point of attachment. FITC = O=C1OC2(c3ccc(O)cc3Oc3cc(O)ccc32)c2ccc(NC(=S)*)cc21; Pmab = not defined here; PEG = not defined here
T1: peptide 9 (synthetic construct, not fully specified (residue 3); reading uncertain)
T1 chain: {FITC-PEG}-PLHS[Pmab]


How the values were obtained:
HeLa cells = experiment: Mitotic arrest and apoptotic cell death in cultured HeLa cells; type: cell-based, human; conditions: 100 nM
peptide 9 = target: T1, peptide 9; experiment: fluorescence polarization

Kd (peptide 9) [nM] | Molecule | induction of mitotic arrest and apoptotic cell death (HeLa cells)
– | CC[C@@H]1C(=O)N(C)c2cnc(Nc3ccc(C(=O)NC4CCN(C)CC4)cc3OC)nc2N1C1CCCC1 [BI 2536] | induced a greatly delayed, but pronounced mitotic arrest and apoptotic cell death
460 | Plk3 PBD PBD (protein) WVSKWVDYSNKFGFGYQLSSRRVAVLFNDGTHMALSANRKTVHYNPTSTKHFSFSVGAVPRALQPQLGILRYFASYMEQHLMKGGDLPSVEEVEVPAPPLLLQWVKTDQALLMLFSDGTVQVNFYGDHTKLILSGWEPLLVTFVARNRSACTYLASHLRQLGCSPDLRQRLRYALRLLRDRSP | –

Source: publication PMC3158281 (Nature chemical biology, 2011)
